Patent publication US20150352134A1, “COMPOSITION FOR TOPICAL SKIN APPLICATION CONTAINING GINSENOSIDE F2 DERIVED FROM HYDROPONIC GINSENG” (AMOREPACIFIC CORPORATION, priority 2012, published 2015)

Assays:
Straphylococcus aureus = assay: Antibacterial effect, MIC; assay type: cell-based, Staphylococcus aureus; details: 48 hours, 32°
Procedure: The antibacterial testing is carried out in order to evaluate the antibacterial effect of ginsenoside F2. The detailed testing method is as follows. Staphylococcus aureus, Escherichia coli, and pseudomonas aeruginosa strains are cultured with a tryptic soy broth, and candida albicans and aspergillus niger strains are cultured with sabouraud dextrose broth. The test bacterial liquid is the 1/100 (1/10 for candida albicans strain) diluted solution of the culture medium diluted with each medium. For aspergillus niger, the test bacterial liquid is the spore suspension prepared to 2×10^8 cfu/ml. 0.15 ml of the test bacterial liquid is added to 15 ml of each culture medium to prepare a well-blended diluted solution. 16 μl of the sample is put into each well on the first row of a 96-well plate, and 184 μl of the diluted solution is added to each well on the first row. Then, 100 μl of the diluted solution is put into each of the other wells. The mixed solution of the first row is sufficiently stirred, and 100 μl of the mixed solution is added to each well on the second row of the 96-well plate and stirred sufficiently. […] 48 hours later, the cell proliferation is determined by the turbidity index and microscopic observation to determine the minimum inhibitory concentration (MIC).

3T3-L1 cells = assay: Lipogenesis inhibition in 3T3-L1 cells (Sudan III dyeing); assay type: cell-based, mouse; details: caffeine 50 μM; visual evaluation of fat accumulation
Procedure: The mouse fibroblast cell line, 3T3-L1 cells are immobilized in a 6-well culture plate filled with Dulbecco's modified eagle's medium (DMEM) (GIBCO BRL, Life Technologies, Inc.) containing 10% fetal bovine serum (FBS) at an amount of 1×10^5 cells/well. After 2 days, the used medium is replaced with a new DMEM (containing 10% FBS) medium to culture the cells for 2 days. […] After 5 days, the used DMEM medium is replaced with a normal medium (DMEM containing 10% FBS). The cells are cultured and observed until they are morphologically changed into fat cells. In order to evaluate the ginsenoside F2 in regards to the inhibitory effect on the fat accumulation in the fat cells, the completely differentiated 3T3-L1 fat cells are dyed with Sudan III ([…], Sigma-Aldrich). The fat cells are immobilized with 4% para-formaldehyde (pH 7.2) at the room temperature in a phosphate buffer solution. The fat cells are washed with phosphate-buffered saline (PBS) and then dyed with Sudan III. The picture of the fat cells is taken for visual evaluation. The control uses a medium using neither a test substance nor a comparative substance. The comparative control group is treated with 50 μM caffeine. The fat accumulation inhibitory ability is evaluated based on the degree of dying. The degree of dying is graded +++, ++, +, and - in the decreasing order.

Candida albicans = assay: Antibacterial effect, MIC; assay type: cell-based; details: 48 hours, 25° C.
Procedure: (§1) The antibacterial testing is carried out in order to evaluate the antibacterial effect of ginsenoside F2. The detailed testing method is as follows. Staphylococcus aureus, Escherichia coli, and pseudomonas aeruginosa strains are cultured with a tryptic soy broth, and candida albicans and aspergillus niger strains are cultured with sabouraud dextrose broth. The test bacterial liquid is the 1/100 (1/10 for candida albicans strain) diluted solution of the culture medium diluted with each medium. For aspergillus niger, the test bacterial liquid is the spore suspension prepared to 2×10^8 cfu/ml. 0.15 ml of the test bacterial liquid is added to 15 ml of each culture medium to prepare a well-blended diluted solution. 16 μl of the sample is put into each well on the first row of a 96-well plate, and 184 μl of the diluted solution is added to each well on the first row. Then, 100 μl of the diluted solution is put into each of the other wells. The mixed solution of the first row is sufficiently stirred, and 100 μl of the mixed solution is added to each well on the second row of the 96-well plate and stirred sufficiently. 100 μl of the mixed solution on the second row is taken and added to each well on the third row to achieve two-fold serial dilution. Straphylococcus aureus, Escherichia coli, and Pseudomonas aeruginosa strains are cultured in a thermostat container at 32°, and Candida albicans and Aspergillus niger strains are cultured in a thermostat container at 25° C. 48 hours later, the cell proliferation is determined by the turbidity index and microscopic observation to determine the minimum inhibitory concentration (MIC).

Pseudomonas aeruginosa = assay: Antibacterial effect, MIC; assay type: cell-based; details: 48 hours, 32°
Procedure: as §1

Escherichia coli = assay: Antibacterial effect, MIC; assay type: cell-based; details: 48 hours, 32°
Procedure: as §1

Aspergillus niger = assay: Antibacterial effect, MIC; assay type: cell-based; details: 48 hours, 25° C.
Procedure: as §1

interleukin-8 (IL-8) = assay: IL-8 generation inhibition in normal human skin keratinocytes (ELISA); assay type: cell-based; details: stimulation with PGSA / LPS, 24 hours
Procedure: One day before the testing, normal human skin keratinocytes (NHEK) purchased from Lonza are injected into a 96-well plate at a rate of 5×10^4 cells/well and cultured in an incubator under conditions of 5% CO2 and 37° C. for 24 hours. After 24 hours, the culture plate is washed with PBS twice, and the used culture medium is replaced with a serum-free keratinocyte basement medium. Ginsenoside F2 is injected into each well according to the concentration of Table 24 and allowed to react for 30 minutes. Then, the keratinocytes are treated separately with 10 μg/ml of PGSA, 50 μg/ml of PGSA, and a mixture of PGSA (50 μg/ml) and LPS (1 μg/ml). In this regard, PGSA (peptidoglycan from S. aureus) is stapylococcus-derived peptidoglycan that is a principal component of the cell membrane of gram-positive (+) bacteria, and the components of the cell membrane of bacteria are known to cause inflammation. Particularly, it is reported that about 90% of patients with atopic dermatitis are susceptible to secondary infection due to staphylococcus. LPS (lipopolysaccharide) is a principal component of the cell membrane of gram-negative (−) bacteria and reportedly a main cause of inflammation. After the keratinocytes are cultured in an incubator under conditions of 5% CO2 and 37° C. for 24 hours, the culture medium is collected and subjected to ELISA for interleukin-8 (IL-8). The ELISA is carried out according to the testing method as instructed by the manufacturer (BD Science).

CC(C)=CCC[C@](C)(O[C@@H]1O[C@H](CO)[C@@H](O)[C@H](O)[C@H]1O)[C@H]1CC[C@]2(C)[C@@H]1[C@H](O)C[C@@H]1[C@@]3(C)CC[C@H](O[C@@H]4O[C@H](CO)[C@@H](O)[C@H](O)[C@H]4O)C(C)(C)[C@@H]3CC[C@]12C [Ginsenoside F2, ginsenoside F2]
MIC (%) Straphylococcus aureus (Straphylococcus aureus): 0.07% | Degree of Sudan III staining (visual grade) (3T3-L1 cells): − | MIC (%) Candida albicans (Candida albicans): >4% | MIC (%) Pseudomonas aeruginosa (Pseudomonas aeruginosa): 0.09% | MIC (%) Escherichia coli (Escherichia coli): 0.13% | MIC (%) Aspergillus niger (Aspergillus niger): >2% | IL-8 secretion (interleukin-8 (IL-8); 5 ppm): 1209.66 pg/mL | IL-8 secretion (interleukin-8 (IL-8); 25 ppm): 1118.80 pg/mL | IL-8 secretion (interleukin-8 (IL-8); 50 ppm): 1110.29 pg/mL
